From patent publication US20240279298A1 (BEIJING TUO JIE BIOPHARMACEUTICAL CO. LTD., priority 2021, published 2024)
Values after ≈ are worked out from the molar mass of the structure shown. Where a SMILES comes first, the peptide text is derived from it. [ ]: non-standard residue; d: D form. Aib = CC(C)(N)C(=O)O

Legend:
[1] = molecular target: T1, human glucagon receptor (GCGR) (Homo sapiens, UniProt P47871); test: Agonist activity assay for GCGR (cAMP HTRF); format: cell-based; conditions: normalized by the activity of the native glucagon
T1 construct: expressed in transfected cells
T1 sequence (P47871 26-477): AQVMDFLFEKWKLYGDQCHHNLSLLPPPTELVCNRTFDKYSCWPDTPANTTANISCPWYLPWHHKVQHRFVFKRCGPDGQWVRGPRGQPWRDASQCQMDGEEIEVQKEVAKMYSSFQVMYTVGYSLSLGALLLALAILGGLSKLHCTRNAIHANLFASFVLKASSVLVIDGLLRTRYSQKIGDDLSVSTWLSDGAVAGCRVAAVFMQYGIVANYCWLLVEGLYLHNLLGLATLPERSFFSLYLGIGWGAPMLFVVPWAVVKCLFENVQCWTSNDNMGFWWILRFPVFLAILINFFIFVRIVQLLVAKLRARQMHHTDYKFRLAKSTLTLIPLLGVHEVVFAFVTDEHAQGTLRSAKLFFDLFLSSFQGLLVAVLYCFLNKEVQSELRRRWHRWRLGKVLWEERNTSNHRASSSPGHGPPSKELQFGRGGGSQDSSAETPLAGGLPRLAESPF
Protocol: The activation of GCGR by related compounds will stimulate the formation of cyclic adenosine monophosphate (cAMP) in cells. Thus, the receptor activity can be monitored by cAMP production in proper cells expressing the receptor. […] The cells were passaged at least once for subsequent tests. Before testing, the cells were trypsinized, centrifuged, washed once, and resuspended in serum-free DMEM/F12 medium. The cell density was adjusted, and the cells were plated in a 96-well plate at a density of 2,500 cells/5 μL/well. […] The mixture was mixed well by moderate vibration, and incubated for 1 hour at room temperature away from light.

[2] = Chemical stability in phosphate buffer (UPLC purity); format: physicochemical
human GIPR = molecular target: T2, human GIPR (Homo sapiens, UniProt P48546); test: Agonist activity assay for GIPR (cAMP HTRF); format: cell-based
T2 construct: expressed in transfected cells
T2 sequence (P48546 22-466): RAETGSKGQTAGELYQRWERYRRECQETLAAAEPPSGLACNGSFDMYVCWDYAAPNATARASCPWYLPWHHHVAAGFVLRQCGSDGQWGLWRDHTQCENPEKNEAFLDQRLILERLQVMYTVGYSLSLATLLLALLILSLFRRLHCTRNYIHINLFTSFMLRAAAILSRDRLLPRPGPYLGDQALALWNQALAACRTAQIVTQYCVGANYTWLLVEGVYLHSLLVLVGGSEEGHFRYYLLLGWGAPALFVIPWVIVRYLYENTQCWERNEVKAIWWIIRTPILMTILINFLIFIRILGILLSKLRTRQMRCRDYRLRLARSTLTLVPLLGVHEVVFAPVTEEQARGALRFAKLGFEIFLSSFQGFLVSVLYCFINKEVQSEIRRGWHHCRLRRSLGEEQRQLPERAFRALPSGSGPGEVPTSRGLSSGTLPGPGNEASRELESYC
Protocol: The activation of GCGR by related compounds will stimulate the formation of cyclic adenosine monophosphate (cAMP) in cells. Thus, the receptor activity can be monitored by cAMP production in proper cells expressing the receptor.
Agonist activity assay for GCGR: Cryopreserved stable CHO-K1/GCGR/CRE-Luc cells were taken from a liquid nitrogen tank, thawed in a 37° C. water bath, resuspended in DMEM/F12 medium (Sigma Cat #D8437), centrifuged, and seeded into T75 culture flasks. The cells were passaged at least once for subsequent tests. Before testing, the cells were trypsinized, centrifuged, washed once, and resuspended in serum-free DMEM/F12 medium. The cell density was adjusted, and the cells were plated in a 96-well plate at a density of 2,500 cells/5 μL/well. A 1×buffer solution in Cisbio-cAMP-Gs Dynamic kit was prepared, and IBMX was added at a final concentration of 0.5 mM. 5 μL of polypeptide serially diluted by buffer was added into each well, and the plate was shaken gently for mixing and incubated for 30 minutes at 37° C. cAMP-d2 and Anti-cAMP-Eu^3+-Cryptate were 20-fold diluted with cAMP Lysis and detection buffer respectively and mixed well. 5 μL of diluted cAMP-d2 solution and 5 μL of diluted Anti-cAMP-Eu^3+-Cryptate solution were sequentially added into each well. The mixture was mixed well by moderate vibration, and incubated for 1 hour at room temperature away from light.
Agonist activity assay for GIPR: The method differed from the method described above for the agonist activity assay for GCGR in that a stable CHO-K1/GIPR cell line was used, and the cell density was 3,000 cells/5 μL/well.

[3] = Maximum solubility in phosphate buffer pH 7.4; format: physicochemical; conditions: phosphate buffer pH 7.4, room temperature
[4] = Pharmacokinetics in rats after subcutaneous injection; format: in vivo, SD rats; conditions: plasma
Protocol: (1) Animals were grouped according to Table 12, and were given free access to water and food before administration.
• Sampling time: 0 min pre-dose, and 2 min, 4 min, 7 min, 10 min, 20 min, 40 min, 1 h and 2 h post-dose. Blood was collected from rats by jugular catheterization.
• 1) 0.2 mL of whole blood was collected at each time point into a centrifuge tube containing EDTA-K2; • 2) The blood samples were centrifuged at 4000 g at 4° C. for 5 min, and separated to give the plasma; • 3) The plasma samples were cryopreserved at −80° C.
The mixture was vortexed for 5 min and centrifuged at a low temperature for 10 min. 100 μL of the supernatant was taken and added to 100 μL of 0.1% formic acid aqueous solution. The mixture was mixed well, and loaded on the instrument for analysis; • Liquid chromatography and mass spectrometry analysis: LC-30A liquid chromatography system (Shimadzu, Japan) and API 5500 liquid chromatography-triple quadrupole mass spectrometer (Analyst Software data processing system, AB Sciex, USA) were used. The chromatographic column was nanomicro Unisil C18aq (4.6 mm×150 mm, 5 μm) chromatographic column; the column temperature was 40° C.; the mobile phase A was 0.1% formic acid aqueous solution, and the mobile phase B was 0.1% formic acid in acetonitrile; the flow rate was 0.5 mL/min; the injection volume was 20 μL; the gradient is shown in Table 13 below. The mass spectrum was obtained using an electrospray ionization (ESI) source, a positive ion analysis mode and a multi reaction monitoring (MRM) scanning mode.
The plasma concentration of the test compounds was measured by HPLC-MS/MS. The plasma concentration-time curve was plotted, and the pharmacokinetic parameters were calculated by PKSolver.

[5] = human, microsomes, 0.25 h, 1 μM
[6] = 4° C., phosphate buffer pH 7.4, 1 mg/mL
[7] = 25° C., phosphate buffer pH 7.4, 1 mg/mL
[8] = male SD rats, single SC injection, Dasiglucagon 5 mg/kg, 40 5.06 mg/kg

- Percentage residues 0 min (human liver microsomes): 100.0%
- T½ (human liver microsomes; human, microsomes, 1 μM): 125.37 min
- Percentage residues 15 min (human liver microsomes; [5]): 100.5%
- Percentage residues 30 min (human liver microsomes; human, microsomes, 0.5 h, 1 μM): 89.85%
- Percentage residues 60 min (human liver microsomes; human, microsomes, 1 h, 1 μM): 66.96%
- Percentage residues 120 min (human liver microsomes; human, microsomes, 2 h, 1 μM): 41.48%
- Relative activity [1]: 318%
- Purity Day 7 [2, 6]: 99.40%
- Purity Day 14 [2, 6]: 99.87%
- Purity Day 21 [2, 6]: 100.27%
- Purity Day 28 [2, 6]: 100.59%
- Purity Day 7 [2, 7]: 99.70%
- Purity Day 14 [2, 7]: 99.54%
- Purity Day 21 [2, 7]: 97.63%
- Purity Day 28 [2, 7]: 97.90%
- Purity Day 0 ([2]; phosphate buffer pH 7.4, 1 mg/mL, day 0 (normalization)): 100.00%
- EC50 (human GIPR; CHO-K1/GIPR cell line, cAMP): > 100 nM
- GIPR % Activity relative to native GIP (human GIPR; relative to native GIP): <0.0700%
- Percentage residues 0 min (human kidney microsomes): 100.0%
- Percentage residues 60 min (human kidney microsomes): 25.16%
- T½ (human kidney microsomes; human, microsomes, 1 μM): 38.19 min
- Percentage residues 15 min (human kidney microsomes; [5]): 63.34%
- Percentage residues 30 min (human kidney microsomes; human, microsomes, 0.5 h, 1 μM): 45.04%
- Percentage residues 120 min (human kidney microsomes; human, microsomes, 2 h, 1 μM): 10.61%
- solubility at 5 min [3]: 5190 µg/mL (≈ 1520 µM)
- AUClast/D [4, 8]: 176 h·ng/mL per mg/kg
- T1/2 [4, 8]: 24.8 min
- Tmax ([4]; male, SD, rat, sc): 7.02 min
- half-life ([4]; male, SD, rat, sc, male SD rats, single SC injection, Dasiglucagon 5 mg/kg, 40 5.06 mg/kg): 24.6 min
- bioavailability ([4]; male, SD, rat, sc, read-out: Bioavailability (F %)): 88.2%
Structure (SMILES): CC(C)C[C@H](NC(=O)[C@H](Cc1ccc(O)cc1)NC(=O)[C@H](CCCCN)NC(=O)[C@H](CO)NC(=O)[C@H](Cc1ccc(O)cc1)NC(=O)[C@H](CC(=O)O)NC(=O)[C@H](CO)NC(=O)[C@@H](NC(=O)[C@H](Cc1ccccc1)NC(=O)[C@@H](NC(=O)CNC(=O)[C@H](CCC(N)=O)NC(=O)[C@H](CO)NC(=O)[C@@H](N)Cc1c[nH]cn1)[C@@H](C)O)[C@@H](C)O)C(=O)N[C@@H](CC(=O)O)C(=O)N[C@@H](CC(C)C)C(=O)NC(C)(C)C(=O)N[C@@H](CCCNC(=N)N)C(=O)N[C@@H](C)C(=O)N[C@@H](CCC(N)=O)C(=O)N[C@@H](CCC(=O)O)C(=O)N[C@@H](Cc1ccccc1)C(=O)N[C@H](C(=O)N[C@@H](CCC(N)=O)C(=O)N[C@@H](Cc1c[nH]c2ccccc12)C(=O)N[C@@H](CC(C)C)C(=O)N[C@@H](CCC(=O)O)C(=O)N[C@@H](CO)C(=O)N[C@H](C(=O)O)[C@@H](C)O)C(C)C [Compound 40] (H-HSQGTFTSDYSKYLDL[Aib]RAQEFVQWLEST-OH)
- Chemical stability in phosphate buffers (in words) [2]: better chemical stability in phosphate buffers than that of Dasiglucagon
